# Laboratory results as given in patent US5741811A, “Polythiophene anti-tumor agents” (Purdue Research Foundation, priority 1996, dated 1998).
# Legend:
# [1] = system: TBE cells (ras-transformed human bronchial epithelial cells); experiment: Selective cytotoxicity, ras-transformed cells (cell count); format: cell-based
# [2] = system: NHBE cells (Normal human bronchial epithelial cells); experiment: Selective cytotoxicity, normal cells (cell count); format: cell-based
# [3] = system: ras-transformed human bronchial epithelial cells (TBE) tumor; experiment: In vivo antitumor activity, TBE cells implanted in athymic mice; set-up: species or system athymic mice (human tumor cells); conditions: 25 mg/kg i.p., 4.0 × 10^6 cells/mouse; for Number of Animals with Tumor: five mice
# Procedure: The experiments were carried out at Purdue University athymic mouse laboratory. Athymic mice were purchased from and maintained at the athymic mouse laboratory under […]. Tumor cells (TBE) were obtained from normal human bronchial epithelial cells transfected with plasmic H1 carrying v-Harvey-ras (H-ras) oncogene via protoplast fusion (G. H. Yoakum, J. F. Lechner, E. W. Gabrielson, B. E. Korba, L. Malan-Shibley, J. C. Willey, M. G. Valerio, A. M. Shamsuddin, B. F. Trump and C. C. Harris, Science 227, 1174, 1985. T. C. K. Chan, C.-j. Chang, N. M. Koonchanok and R.L. Geahlen, Biochem. Biophys. Res. Commun., 193, 1152, 1993. The TBE cells were implanted subcutaneously on day 0 of the experiment. Each test group consists of five mice. The compounds tested were dissolved in a saline solution or a saline solution containing 5% of dimethylsulfoxide and 10% cremphor EL (Sigma Chemical Company, St. Louis, Mo.), and were administered intraperitoneously starting on day 2. The solution was administered every four days for a total of four treatments. Tumor volumes were measured every week. The antitumor activity was measured as % of growth inhibition, which is defined by the percentage of the median tumor volume reduction per week of the treated mice divided by the median tumor volume per week of the controlled mice (Tables 9 and 10).
# [4] = system: HOP-18 lung cancer cells; experiment: NCI human tumor cell line panel growth inhibition; format: cell-based; conditions: Homo sapiens, read-out: Log10 GI50 (converted)
# [5] = system: OVCAR-5 ovarian cancer cells; experiment: NCI human tumor cell line panel growth inhibition; format: cell-based
# [6] = system: HCC-2998 colon cancer cells; experiment: NCI human tumor cell line panel growth inhibition; format: cell-based; conditions: Homo sapiens, read-out: Log10 GI50 (converted)
# [7] = system: NCI-H226 lung cancer cells; experiment: NCI human tumor cell line panel growth inhibition; format: cell-based
# [8] = system: SNB-19 CNS cancer cells; experiment: NCI human tumor cell line panel growth inhibition; format: cell-based; conditions: Homo sapiens, read-out: Log10 GI50 (converted)
# [9] = system: NCI-H322M lung cancer cells; experiment: NCI human tumor cell line panel growth inhibition; format: cell-based; conditions: Homo sapiens, read-out: Log10 GI50 (converted)
# [10] = system: COLO-205 colon cancer cells; experiment: NCI human tumor cell line panel growth inhibition; format: cell-based; conditions: Homo sapiens; COLO-205, colon cancer; read-out: Log10 GI50 (converted)
# [11] = system: SF-295 CNS cancer cells; experiment: NCI human tumor cell line panel growth inhibition; format: cell-based; conditions: read-out: Log10 GI50 (converted)
# [12] = system: HCT-116 colon cancer cells; experiment: NCI human tumor cell line panel growth inhibition; format: cell-based
# [13] = system: U251 CNS cancer cells; experiment: NCI human tumor cell line panel growth inhibition; format: cell-based
# [14] = system: UACC-62 melanoma cells; experiment: NCI human tumor cell line panel growth inhibition; format: cell-based
# [15] = system: A-498 renal cancer cells; experiment: NCI human tumor cell line panel growth inhibition; format: cell-based
# [16] = system: CAKI-1 renal cancer cells; experiment: NCI human tumor cell line panel growth inhibition; format: cell-based; conditions: CAKI-1, renal cancer
# [17] = system: RXF-393 renal cancer cells; experiment: NCI human tumor cell line panel growth inhibition; format: cell-based; conditions: Homo sapiens, read-out: Log10 GI50 (converted)
# [18] = system: IGROV-1 ovarian cancer cells; experiment: NCI human tumor cell line panel growth inhibition; format: cell-based
# [19] = system: KM20L2 colon cancer cells; experiment: NCI human tumor cell line panel growth inhibition; format: cell-based
# [20] = system: NCI-H23 lung cancer cells; experiment: NCI human tumor cell line panel growth inhibition; format: cell-based; conditions: read-out: Log10 GI50 (converted)
# [21] = system: DLD-1 colon cancer cells; experiment: NCI human tumor cell line panel growth inhibition; format: cell-based; conditions: Homo sapiens, read-out: Log10 GI50 (converted)
# [22] = system: TK-10 renal cancer cells; experiment: NCI human tumor cell line panel growth inhibition; format: cell-based
# [23] = system: RXF-631 renal cancer cells; experiment: NCI human tumor cell line panel growth inhibition; format: cell-based
# [24] = system: NCI-H460 lung cancer cells; experiment: NCI human tumor cell line panel growth inhibition; format: cell-based
# [25] = system: UACC-257 melanoma cells; experiment: NCI human tumor cell line panel growth inhibition; format: cell-based
# [26] = system: LXPL-529 lung cancer cells; experiment: NCI human tumor cell line panel growth inhibition; format: cell-based
# [27] = system: SNB-75 CNS cancer cells; experiment: NCI human tumor cell line panel growth inhibition; format: cell-based
# [28] = Homo sapiens, read-out: Log10 GI50 (converted)
structure (smiles),measurement,setting,value
OCc1ccc(-c2ccc(-c3cccs3)s2)s1 [compound 637388],GI50,[1],0.02 µg/mL
same,GI50,[2],3 µg/mL
O=Cc1ccc(-c2ccc(-c3cccs3)s2)s1 [compound 637393],GI50,[1],0.03 µg/mL
same,GI50,[2],0.2 µg/mL
O=Cc1ccc(-c2ccc(-c3ccc(C=O)s3)s2)s1 [compound 637394],GI50,[1],0.01 µg/mL
same,GI50,[2],0.2 µg/mL
O=Cc1ccc(-c2ccc(CO)s2)s1 [compound 647073],GI50,[1],0.05 µg/mL
same,GI50,[2],0.08 µg/mL
OCc1ccc(-c2ccc(CO)s2)s1 [compound 647452],GI50,[1],0.03 µg/mL
same,GI50,[2],0.6 µg/mL
O=Cc1ccc(-c2ccc(-c3ccc(CO)s3)s2)s1 [compound 647455],GI50,[1],0.002 µg/mL
same,Tumor Volume,[3]; week 1,0.0 mm^3
same,Number of Animals with Tumor,[3]; week 1,0
same,Tumor Volume,[3]; week 1.5,1.4 mm^3
same,Number of Animals with Tumor,[3]; week 1.5,1
same,Tumor Volume,[3]; week 2,5.2 mm^3
same,Number of Animals with Tumor,[3]; week 2,3
same,Slope,[3]; week 3,2.16 mm^3 /week
same,Tumor Growth Inhibition,[3]; week 3,57%
same,Tumor Volume,[3]; week 3,5.8 mm^3
same,Number of Animals with Tumor,[3]; week 3,4
same,Slope,[3]; week 4,1.75 mm^3 /week
same,Tumor Growth Inhibition,[3]; week 4,60%
same,Tumor Volume,[3]; week 4,5.6 mm^3
same,Number of Animals with Tumor,[3]; week 4,4
same,Slope,[3]; week 5,1.34 mm^3 /week
same,Tumor Growth Inhibition,[3]; week 5,61%
same,Tumor Volume,[3]; week 5,5.4 mm^3
same,Number of Animals with Tumor,[3]; week 5,4
same,Slope,[3]; week 6,1.60 mm^3 /week
same,Tumor Growth Inhibition,[3]; week 6,45%
same,Tumor Volume,[3]; week 6,10.6 mm^3
same,Number of Animals with Tumor,[3]; week 6,5
same,Slope,[3]; week 8.6,2.07 mm^3 /week
same,Tumor Growth Inhibition,[3]; week 8.6,21%
same,Tumor Volume,[3]; week 8.6,18.8 mm^3
same,Number of Animals with Tumor,[3]; week 8.6,5
same,GI50,[2],0.1 µg/mL
NCc1ccc(-c2ccc(-c3cccs3)s2)s1 [compound 652866],GI50,[1],0.001 µg/mL
same,GI50,[2],0.01 µg/mL
NCc1ccc(-c2ccc(-c3ccc(CO)s3)s2)s1 [compound 656898],GI50,[1],0.02 µg/mL
same,GI50,[2],3 µg/mL
NCc1ccc(-c2ccc(-c3ccc(CN)s3)s2)s1 [compound 658110],GI50,[1],4 µg/mL
same,GI50,[2],10 µg/mL
OCc1ccc(-c2ccc(-c3sccc3CO)s2)s1 [compound 658875],GI50,[1],0.002 µg/mL
same,GI50,[2],9.7 µg/mL
O=Cc1ccc(-c2ccc(-c3sccc3CO)s2)s1 [compound 658876],GI50,[1],0.02 µg/mL
same,GI50,[2],0.4 µg/mL
O=Cc1ccc(-c2ccc(-c3sccc3C=O)s2)s1 [compound 658877],GI50,[1],0.03 µg/mL
same,GI50,[2],0.6 µg/mL
OCc1csc(-c2ccc(-c3ccc(CO)s3)s2)c1 [compound 658878],GI50,[1],0.002 µg/mL
same,GI50,[2],8 µg/mL
O=Cc1ccc(-c2ccc(-c3cc(CO)cs3)s2)s1 [compound 658879],GI50,[1],0.004 µg/mL
same,GI50,[2],6.2 µg/mL
CC[N+](CC)(CC)Cc1ccc(-c2ccc(-c3cccs3)s2)s1 [compound 659561],GI50,[1],2 µg/mL
same,GI50,[2],5 µg/mL
O=Cc1ccc(-c2ccc(-c3ccsc3)s2)s1 [compound 660643],GI50,[1],0.005 µg/mL
same,GI50,[2],2.4 µg/mL
OCc1ccc(-c2ccc(-c3ccsc3)s2)s1 [compound 660644],GI50,[1],0.002 µg/mL
same,GI50,[2],3.6 µg/mL
OCc1ccc(-c2ccc(-c3cccs3)s2)s1 [drawing 30],GI50,[4],22400 nM
same,GI50,[5]; [28],224 nM
same,GI50,[6],36300 nM
same,GI50,[7]; [28],117 nM
same,GI50,[8],18600 nM
same,GI50,[9],29500 nM
same,GI50,[10],912 nM
same,GI50,[11],33900 nM
same,GI50,[12]; [28],295 nM
same,GI50,"[13]; Homo sapiens, U-251, read-out: Log10 GI50 (converted)",148 nM
same,GI50,[14]; [28],< 10 nM
same,GI50,"[15]; Homo sapiens, A498, read-out: Log10 GI50 (converted)",< 10 nM
same,GI50,[16]; [28],27.5 nM
same,GI50,[17],31.6 nM
same,GI50,[18]; [28],42.7 nM
same,GI50,"[19]; Homo sapiens, KM-20L2, read-out: Log10 GI50 (converted)",245 nM
same,GI50,[20],70800 nM
same,GI50,[21],4470 nM
same,GI50,[22]; [28],105 nM
same,GI50,[23]; [28],28.2 nM
same,GI50,[24]; [28],490 nM
same,GI50,[25]; [28],102 nM
same,GI50,[26]; [28],< 10 nM
O=Cc1ccc(-c2ccc(-c3ccc(C=O)s3)s2)s1 [drawing 35],Log10 GI50,[5],-4.68 M
same,Log10 GI50,[7],-5.76 M
same,Log10 GI50,[12],-4.74 M
same,Log10 GI50,[13],-6.09 M
same,Log10 GI50,[14],-6.46 M
same,Log10 GI50,[15],-5.93 M
same,Log10 GI50,[16],-5.88 M
same,Log10 GI50,[18],-5.15 M
same,Log10 GI50,[19],-4.39 M
same,Log10 GI50,[22],-5.29 M
same,Log10 GI50,[27],-4.14 M
same,Log10 GI50,[23],-4.03 M
same,Log10 GI50,[24],-5.62 M
same,Log10 GI50,[25],-5.72 M
same,Log10 GI50,[26],-5.95 M
